Experimental data as given in patent US10322110B2, “Imidazole-based antimicrobial agents” (priority 2014, dated 2019).
In brackets after ≈: the same amount, converted by molar mass. Where two headings read alike, the source gives them in different places.

Tests used:
Type in all cases: cell-based
[1] = test system: Human hepatocytes (HepaRG cells); assay: human cytotoxicity assay in vitro (CellTiter-Glo), hepatocytes; settings: cytotoxicity class
[2] = test system: Staphylococcus aureus MSSA (Newman); assay: broth microdilution MIC assay, Staphylococcus aureus MSSA (Newman); settings: for MIC: Staphylococcus aureus; for Antibacterial activity Staphylococcus aureus (MSSA): MIC100 class score, broth microdilution
[3] = test system: Staphylococcus aureus MRSA (COL); assay: broth microdilution MIC assay, Staphylococcus aureus MRSA (COL); settings: for MIC: Staphylococcus aureus, MRSA; for Antibacterial activity Staphylococcus aureus (MRSA): MIC100 class score, broth microdilution
[4] = test system: Staphylococcus epidermidis (PCI 1200, ATCC12228); assay: broth microdilution MIC assay, Staphylococcus epidermidis; settings: ATCC12228, read-out: Antibacterial activity SE (Staphylococcus epidermidis)
[5] = test system: Streptococcus pneumoniae (Chester, ATCC49619); assay: broth microdilution MIC assay, Streptococcus pneumoniae; settings: MIC100 class score, 24 h
[6] = test system: Bacillus subtilis (Marburg strain, ATCC6051); assay: microbe, parasite or virus in culture; settings: ATCC6051, read-out: Antibacterial activity BS (Bacillus substilis)
[7] = test system: penicillin-, erythromycin- and tetracycline-resistant Streptococcus pneumoniae (ATCC 700677), ARSP; assay: microbe, parasite or virus in culture; settings: ATCC700677, read-out: Antibacterial activity ARSP (multi-drug resistant-SP)
[8] = 24 h, read-out: Antibacterial activity Staphylococcus aureus (MSSA)
[9] = read-out: Antibacterial activity MSSA (Staphylococcus aureus MSSA)
[10] = 24 h, read-out: Antibacterial activity Staphylococcus aureus (MRSA)
[11] = read-out: Antibacterial activity MRSA (Staphylococcus aureus MRSA)

## Cc1[nH]c(-c2ccc(-c3ccccc3Cl)o2)nc1-c1ccccc1 [Compound 3]
[1]
  cytotoxicity cell line H (hepatocytes): 3
[2]; [8]
  MIC: 3 to 10 µg/mL (≈ 8.96 to 29.9 µM)
[2]; [9]
  MIC: 3 to 10 µg/mL (≈ 8.96 to 29.9 µM)
[3]; [10]
  MIC: 11 to 201 µg/mL (≈ 32.9 to 600 µM)
[3]; [11]
  MIC: 11 to 201 µg/mL (≈ 32.9 to 600 µM)
[4]
  MIC: 11 to 201 µg/mL (≈ 32.9 to 600 µM)

## Cc1nc(-c2ccc(-c3cccc(Cl)c3)o2)[nH]c1-c1ccccc1 [Compound 4]
[2]; [8]
  MIC: 1 to 3 µg/mL (≈ 2.99 to 8.96 µM)
[2]; [9]
  MIC: 1 to 3 µg/mL (≈ 2.99 to 8.96 µM)
[3]; [10]
  MIC: 11 to 201 µg/mL (≈ 32.9 to 600 µM)
[3]; [11]
  MIC: 11 to 201 µg/mL (≈ 32.9 to 600 µM)
[4]
  MIC: 3 to 10 µg/mL (≈ 8.96 to 29.9 µM)

## Cc1nc(-c2ccc(-c3ccc(Cl)cc3)o2)[nH]c1-c1ccccc1 [Compound 5]
[1]
  cytotoxicity cell line H (hepatocytes): 2
[2]; [8]
  MIC: 1 to 3 µg/mL (≈ 2.99 to 8.96 µM)
[2]; [9]
  MIC: 1 to 3 µg/mL (≈ 2.99 to 8.96 µM)
[3]; [10]
  MIC: 3 to 10 µg/mL (≈ 8.96 to 29.9 µM)
[3]; [11]
  MIC: 3 to 10 µg/mL (≈ 8.96 to 29.9 µM)
[4]
  MIC: 3 to 10 µg/mL (≈ 8.96 to 29.9 µM)

## Cc1[nH]c(-c2cc(C)n(-c3ccc(Cl)cc3)c2C)nc1-c1ccccc1 [Compound 8]
[1]
  cytotoxicity cell line H (hepatocytes): 2
[5]
  Antibacterial activity Streptococcus pneumoniae: 3 (MIC100 of 2-5 μg/ml)
[3]; [11]
  MIC: 20 to 50 µg/mL (≈ 55.3 to 138 µM)

## Cc1[nH]c(-c2cc(C)n(-c3ccc(F)cc3F)c2C)nc1-c1ccccc1 [Compound 9]
[1]
  cytotoxicity cell line H (hepatocytes): 3
[5]
  Antibacterial activity Streptococcus pneumoniae: 2 (MIC100 of 6-10 μg/ml)
[3]; [11]
  MIC: 20 to 50 µg/mL (≈ 55 to 138 µM)

## Cc1[nH]c(-c2cc(C)n(-c3ccc(F)c(F)c3F)c2C)nc1-c1ccccc1 [Compound 10]
[1]
  cytotoxicity cell line H (hepatocytes): 3
[5]
  Antibacterial activity Streptococcus pneumoniae: 2 (MIC100 of 6-10 μg/ml)

## Cc1[nH]c(-c2ccc(-c3ccccc3C(F)(F)F)o2)nc1-c1ccccc1 [Compound 17]
[1]
  cytotoxicity cell line H (hepatocytes): 3
[2]; [8]
  MIC: 3 to 10 µg/mL (≈ 8.14 to 27.1 µM)
[2]; [9]
  MIC: 3 to 10 µg/mL (≈ 8.14 to 27.1 µM)
[3]; [10]
  MIC: 1 to 3 µg/mL (≈ 2.71 to 8.14 µM)
[3]; [11]
  MIC: 1 to 3 µg/mL (≈ 2.71 to 8.14 µM)
[6]
  MIC: 1 to 3 µg/mL (≈ 2.71 to 8.14 µM)
[4]
  MIC: 20 to 50 µg/mL (≈ 54.3 to 136 µM)

## Cc1[nH]c(-c2ccc(-c3ccccc3C(F)(F)F)o2)nc1-c1ccc(Br)cc1 [Compound 25]
[5]
  Antibacterial activity Streptococcus pneumoniae: 3 (MIC100 of 2-5 μg/ml)
[6]
  MIC: 20 to 50 µg/mL (≈ 44.7 to 112 µM)

## Cc1[nH]c(-c2ccc(-c3ccccc3OC(F)(F)F)o2)nc1-c1ccc(C(F)(F)F)cc1 [Compound 26]
[7]
  MIC: 6 to 10 µg/mL (≈ 13.3 to 22.1 µM)
[5]
  Antibacterial activity Streptococcus pneumoniae: 3 (MIC100 of 2-5 μg/ml)

## CCc1ccc(-c2[nH]c(-c3ccc(-c4ccccc4C(F)(F)F)o3)nc2C)cc1 [Compound 28]
[2]; [9]
  MIC: 20 to 50 µg/mL (≈ 50.5 to 126 µM)
[5]
  Antibacterial activity Streptococcus pneumoniae: 3 (MIC100 of 2-5 μg/ml)
[3]; [11]
  MIC: 20 to 50 µg/mL (≈ 50.5 to 126 µM)
[6]
  MIC: 1 to 3 µg/mL (≈ 2.52 to 7.57 µM)

## Cc1nc(-c2ccc(-c3ccc(Cl)cc3C(F)(F)F)o2)[nH]c1-c1ccccc1 [Compound 32]
[1]
  cytotoxicity cell line H (hepatocytes): 2
[2]; [8]
  MIC: 1 to 3 µg/mL (≈ 2.48 to 7.45 µM)
[2]; [9]
  MIC: 1 to 3 µg/mL (≈ 2.48 to 7.45 µM)
[3]; [10]
  MIC: 3 to 10 µg/mL (≈ 7.45 to 24.8 µM)
[3]; [11]
  MIC: 3 to 10 µg/mL (≈ 7.45 to 24.8 µM)
[4]
  MIC: 3 to 10 µg/mL (≈ 7.45 to 24.8 µM)

## Cc1[nH]c(-c2ccn(-c3ccccc3C(F)(F)F)c2)nc1-c1ccccc1 [Compound 33]
[2]; 24 h
  Antibacterial activity Staphylococcus aureus (MSSA): 3 (MIC100 of 3-10 μg/ml)
[2]; [9]
  MIC: 3 to 10 µg/mL (≈ 8.17 to 27.2 µM)
[5]
  Antibacterial activity Streptococcus pneumoniae: 2 (MIC100 of 6-10 μg/ml)
[3]; [11]
  MIC: 20 to 50 µg/mL (≈ 54.4 to 136 µM)
[4]
  MIC: 11 to 201 µg/mL (≈ 29.9 to 547 µM)

## Cc1[nH]c(-c2cc(C)n(-c3cccc(C(F)(F)F)c3)c2C)nc1-c1ccccc1 [Compound 36]
[1]
  cytotoxicity cell line H (hepatocytes): 3
[5]
  Antibacterial activity Streptococcus pneumoniae: 3 (MIC100 of 2-5 μg/ml)
[3]; 24 h
  Antibacterial activity Staphylococcus aureus (MRSA): 2 (MIC100 of 11-201 μg/ml)
[3]; [11]
  MIC: 11 to 201 µg/mL (≈ 27.8 to 508 µM)

## Cc1[nH]c(-c2ccc(-c3cccc(C(F)(F)F)c3)o2)nc1-c1ccc(F)cc1 [Compound 38]
[2]; [9]
  MIC: 1 to 3 µg/mL (≈ 2.59 to 7.77 µM)
[7]
  MIC: < 1 µg/mL
[5]
  Antibacterial activity Streptococcus pneumoniae: 3 (MIC100 of 2-5 μg/ml)
[3]; [11]
  MIC: 1 to 3 µg/mL (≈ 2.59 to 7.77 µM)
[4]
  MIC: 3 to 10 µg/mL (≈ 7.77 to 25.9 µM)

## Cc1nc(-c2ccc(-c3ccc(Cl)c(OC(F)(F)F)c3)o2)[nH]c1-c1ccc(Cl)cc1 [Compound 44]
[1]
  cytotoxicity cell line H (hepatocytes): 2
[2]; [9]
  MIC: 1 to 3 µg/mL (≈ 2.21 to 6.62 µM)
[3]; 24 h
  Antibacterial activity Staphylococcus aureus (MRSA): 2 (MIC100 of 11-201 μg/ml)
[3]; [11]
  MIC: 11 to 201 µg/mL (≈ 24.3 to 443 µM)
[6]
  MIC: 1 to 3 µg/mL (≈ 2.21 to 6.62 µM)
[4]
  MIC: 11 to 201 µg/mL (≈ 24.3 to 443 µM)

## Cc1[nH]c(-c2ccc(-c3ccc(C(F)(F)F)cc3)s2)nc1-c1ccccc1 [Compound 46]
[2]; 24 h
  Antibacterial activity Staphylococcus aureus (MSSA): 2 (MIC100 of 11-201 μg/ml)
[2]; [9]
  MIC: 11 to 201 µg/mL (≈ 28.6 to 523 µM)
[7]
  MIC: 2 to 5 µg/mL (≈ 5.2 to 13 µM)
[5]
  Antibacterial activity Streptococcus pneumoniae: 3 (MIC100 of 2-5 μg/ml)

## Cc1[nH]c(-c2ccc(-c3ccc(C(F)(F)F)c(Cl)c3)o2)nc1-c1ccc(F)cc1 [Compound 49]
[1]
  cytotoxicity cell line H (hepatocytes): 3
[2]; 24 h
  Antibacterial activity Staphylococcus aureus (MSSA): 3 (MIC100 of 3-10 μg/ml)
[2]; [9]
  MIC: 3 to 10 µg/mL (≈ 7.13 to 23.8 µM)
[7]
  MIC: < 1 µg/mL
[5]
  Antibacterial activity Streptococcus pneumoniae: 3 (MIC100 of 2-5 μg/ml)
[3]; 24 h
  Antibacterial activity Staphylococcus aureus (MRSA): 2 (MIC100 of 11-201 μg/ml)
[3]; [11]
  MIC: 3 to 10 µg/mL (≈ 7.13 to 23.8 µM)
[4]
  MIC: 11 to 201 µg/mL (≈ 26.1 to 478 µM)

## Cc1[nH]c(-c2ccc(-c3ccc(OC(F)(F)F)c(Cl)c3)o2)nc1-c1ccc(Cl)cc1 [Compound 50]
[2]; [8]
  MIC: 3 to 10 µg/mL (≈ 6.62 to 22.1 µM)
[2]; [9]
  MIC: 3 to 10 µg/mL (≈ 6.62 to 22.1 µM)
[3]; [10]
  MIC: 11 to 201 µg/mL (≈ 24.3 to 443 µM)
[3]; [11]
  MIC: 11 to 201 µg/mL (≈ 24.3 to 443 µM)
[4]
  MIC: 20 to 50 µg/mL (≈ 44.1 to 110 µM)

## CCc1ccc(-c2ccc(-c3nc(-c4ccccc4)c(C)[nH]3)o2)cc1 [Compound 53]
[1]
  cytotoxicity cell line H (hepatocytes): 3
[2]; [8]
  MIC: 3 to 10 µg/mL (≈ 9.13 to 30.4 µM)
[2]; [9]
  MIC: 3 to 10 µg/mL (≈ 9.13 to 30.4 µM)
[3]; [10]
  MIC: 20 to 50 µg/mL (≈ 60.9 to 152 µM)
[3]; [11]
  MIC: 20 to 50 µg/mL (≈ 60.9 to 152 µM)

## Cc1[nH]c(-c2cc(C)n(-c3ccc4c(c3)CCC4)c2C)nc1-c1ccccc1 [Compound 59]
[1]
  cytotoxicity cell line H (hepatocytes): 2
[5]
  Antibacterial activity Streptococcus pneumoniae: 3 (MIC100 of 2-5 μg/ml)

## FC(F)(F)Oc1ccccc1-c1ccc(-c2ncc(-c3ccccc3)[nH]2)o1 [Compound 63]
[1]
  cytotoxicity cell line H (hepatocytes): 2
[2]; 24 h
  Antibacterial activity Staphylococcus aureus (MSSA): 3 (MIC100 of 3-10 μg/ml)
[2]; [9]
  MIC: 3 to 10 µg/mL (≈ 8.1 to 27 µM)
[5]
  Antibacterial activity Streptococcus pneumoniae: 3 (MIC100 of 2-5 μg/ml)
[3]; [11]
  MIC: 3 to 10 µg/mL (≈ 8.1 to 27 µM)
[4]
  MIC: 3 to 10 µg/mL (≈ 8.1 to 27 µM)

## FC(F)(F)Oc1ccccc1-c1ccc(-c2nc(-c3ccccc3Cl)c[nH]2)o1 [Compound 67]
[1]
  cytotoxicity cell line H (hepatocytes): 2
[7]
  MIC: 6 to 10 µg/mL (≈ 14.8 to 24.7 µM)
[5]
  Antibacterial activity Streptococcus pneumoniae: 3 (MIC100 of 2-5 μg/ml)
[4]
  MIC: 11 to 201 µg/mL (≈ 27.2 to 497 µM)

## Cc1[nH]c(-c2coc(-c3ccccc3C(F)(F)F)c2)nc1-c1ccccc1 [Compound 72]
[1]
  cytotoxicity cell line H (hepatocytes): 3
[5]
  Antibacterial activity Streptococcus pneumoniae: 2 (MIC100 of 6-10 μg/ml)
